Laboratory results as given in patent US8318812B2, “Therapeutic agents for the treatment of lymphoid malignancies” (The Ohio State University Research Foundation, priority 2006, dated 2012).

Experiments:
primary MCL cells = assay: Annexin V/PI toxicity in primary MCL cells; assay type: cell-based; conditions: Homo sapiens, WinNolin sigmoid inhibitory model
Description: Primary MCL cells were isolated from PBMC (with informed patient consent under a protocol approved by IRB) as described before. All the MCL patients were identified as outlined by the World Health Organization (WHO) classification. Human mantle cell lymphoma patient cell lines (Mino and Jeko) were obtained from Dr. Raymond Lai. Primary cells or MCL cell lines were incubated in RPMI 1640 media, supplemented with 10%-20% heat-inactivated fetal bovine serum, 2 mM L-glutamine and penicillin (100 U/mL)/streptomycin ([…]) at 37° C. in an atmosphere of 5% CO2. FTY720 was synthesized as previously described. Toxicity was determined by flow cytometry using Annexin-V-FITC and Propidium Iodide (PI) staining. Apoptotic cells were identified as Annexin-V+ and/or PI+ cells. Cells excluding both FITC and PI were considered viable. Western Blotting was performed as described previously using indicated antibodies. The PARP (Ab-2) and Caspase 9 antibodies were purchased from Oncogene/Calbiochem/EMD Biosciences (San Diego, Calif.). Cyclin D1, Akt, Actin, Mcl-1, p-ERK, ERK and Bcl-2 were obtained from Santa Cruz biotech (Santa Cruz, Calif.).
Several therapeutic agents, including fludarabine, chlorambucil, 2-chloro-2-deoxyadenosine and glucocorticoids, induce toxicity in B cell malignancies through activating caspases, the cysteine proteases of CED3/ICE family. […]

Raji cells = assay: Raji disseminated lymphoma/leukemia SCID mouse xenograft model; assay type: in vivo, SCID mice
Description: In vivo therapeutic efficacy evaluation in a xenograft model: The in-vivo evaluation of FTY720 was carried out using the disseminated lymphoma bearing SCID mouse xenograft model. This model was generated using human Raji B cell line injected into SCID mice as previously described. Raji cells were cultured in RPMI1640+10% FBS. Confluent cultures with >95% viability were confirmed to express human CD19 by flow cytometry. […] female 6-8 week-old C.B.-17 SCID mice (Taconic Farm, Germantown, N.Y.) were injected with 2×10^6 cells intravenously (i.v) in 200 ul sterile PBS via the tail vein. Seventy two hours post inoculation, the animals were divided into 4 equal treatment groups. […] All the animals were monitored daily for signs of illness and sacrificed immediately if hind limb paralysis, respiratory distress or 30% body weight loss was noted. Body weight was measured once every week. […] The presences of the CD19^+ cells were evaluated in the bone marrow of these mice by flow cytometry. […]

CCCCCCCCc1ccc(CCC(N)(CO)CO)cc1.Cl [FTY720, 2-Amino-2-[2-(4-octylphenyl)ethyl]propane 1,3-diol hydrochloride]
IC50 (primary MCL cells): 10.7 µM | median survival time (Raji cells; FTY720 5 mg/kg every day for 2 weeks i.p., 95% CI 39-53): 47 days | mice surviving without signs of disease (Raji cells; after a follow-up period of 200 days): 4 of the 12
